Patent publication EP4702986A1, “POLYPEPTIDE AND USE THEREOF” (Biocells (Beijing) Biotech Co., Ltd., priority 2023, dated 2024)
Entries after “also recorded” stand apart in the source; their conditions may differ. Numbered stars: 1 amine (or outer) side, 2 acyl side, 3 side chain; on linkers, the order of the positions; unused ones are H or OH. Peptide text beside a SMILES is read from it. Suc = O=C(CCC(=O)[*:2])[*:1]

How the values were obtained:
[1] = system: SD rats; settings: BX34 42 µg/Kg, BX229 6.6 µg/Kg
Experimental: Male SD rats were anesthetized with isoflurane, and their neck hairs were shaved. A midline incision was made on the neck to expose the trachea. A ventilator and anesthesia machine for small animals were turned on, with concentration of an anesthetic gas set to 1.2, and its exit channel connected to an inlet of the ventilator. Tidal volume of the ventilator was set to 2 mL, the respiratory rate was 90 breaths/minute, and the respiratory ratio was 1:2. An outlet end of the ventilator was connected to a plastic hose, which was inserted into the rat's airway.
A machine and a software of a biological signal data acquisition and analysis system were turned on. One end of a data acquisition plate was connected to the plastic hose, and the other end was connected to a collector valve connected with a 1-mL syringe. The syringe was filled with heparinized saline, which was injected into the data acquisition plate to expel the air in the entire space until the heparinized saline flowed out from the other end of the plastic hose. The right common carotid arteries of the rats were isolated. A dead knot was made at the distal end and a slipknot at the proximal end of a right common carotid artery. A 1/2-sized incision was made in the artery between the knot with a microscissor, and the plastic hose with heparinized saline was inserted into the incision and fixed to prevent back-and-forth movement. The initial value of the blood pressure was set to zero with the zero-adjustment valve of the biological signal data acquisition and analysis system. The slipknot at the proximal end of the common carotid artery was untied, and real-time blood pressure data of the animal appeared on the software. […] The dosages of IRL1620, BX34, and BX229 were 5 µg/Kg, 42 µg/kg, and 6.6 µg/Kg, respectively.

[2] = background statement; cited from earlier work
[3] = system: male SD rats; test: in vivo; settings: one animal per row, observed 24 hours
How it was run: (§1)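 Male SD rats (200-230 g) given single tail-vein injections, descending doses from 480 µg/Kg to 30 µg/Kg. Toxic response, mortality and time of death recorded; acute toxicity level preliminarily set from doses without mortality.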

[4] = in vivo; settings: male, SD, rat, in vivo, iv
How it was run: as §1

[5] = SD rats, tail vein, IRL620 5 µg/Kg

CC[C@H](C)[C@H](NC(=O)[C@H](CC(=O)O)NC(=O)[C@H](CC(C)C)NC(=O)[C@H](Cc1c[nH]cn1)NC(=O)[C@H](C)NC(=O)[C@H](Cc1ccccc1)NC(=O)[C@H](Cc1ccc(O)cc1)NC(=O)[C@@H](NC(=O)[C@H](C)NC(=O)[C@H](CCC(=O)O)NC(=O)[C@H](CCC(=O)O)NC(=O)[C@H](CC(=O)O)NC(=O)CCC(=O)O)C(C)C)C(=O)N[C@H](C(=O)N[C@@H](Cc1c[nH]c2ccccc12)C(=O)O)[C@@H](C)CC [IRL1620, reference compound] (Suc-DEEAVYFAHLDIIW-OH)
maximum extent of decrease in blood pressure, of the baseline blood pressure [1, 5]: 16.1%±2.4% | time to the lowest blood pressure [1, 5]: ≤ 2 min | Maximum percentage of blood pressure reduction relative to baseline blood pressure (n = 3) ([1]; intravenous, IRL1620 5 µg/Kg): 16.1%±2.4% | Time from baseline blood pressure to the lowest blood pressure ([1]; intravenous, IRL1620 5 µg/Kg): Less than 2 mins | half-life [2]: less than 2 minutes | Observations of Animal Status ([3]; intravenous (tail vein) 30 µg/Kg): Developed rapid breathing at 13 minutes, showed no willingness to move at 30 minutes; recovered at 1.5 hours; also recorded: Developed rapid breathing at 15 minutes, showed no willingness to move at 25 minutes; recovered at 1.5 hours; also recorded: Lay still at 25 minutes, showed no willingness to move at 1.5 hours; found dead the next morning (estimated to have died during the night) | Observations of Animal Status ([3]; intravenous (tail vein) 60 µg/Kg): Developed rapid breathing at 3 minutes; died at 8 minutes | Observations of Animal Status ([3]; intravenous (tail vein) 120 µg/Kg): Developed rapid breathing and the body turned purple at 5 minutes; died at 9 minutes | MTD at 24 h [4]: 0.03 mg/kg
